In ChEMBL document CHEMBL1201862, “PubChem BioAssay data set” (2004):
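Exposure lasted 48 hours, with cells grown in 96-well plates and compounds tested at five concentrations. Abbreviation: GI50, concentration required for 50% inhibition of growth.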 The source made the active and inactive calls. No stated cut-off is given here; in the data, active = GI50 up to about 1.1 µM and inactive = higher.

Key:
Assay in all cases: growth of human tumour cells (NCI), 48 h
LOX IMVI = tested on: LOX IMVI
OVCAR-8 = tested on: OVCAR-8
786-0 = tested on: 786-0
EKVX = tested on: EKVX
HT-29 = tested on: HT-29
ACHN = tested on: ACHN
DU-145 = tested on: DU-145
RPMI-8226 = tested on: RPMI-8226
SR = tested on: SR
U-251 = tested on: U-251
T47D = tested on: T47D
TK-10 = tested on: TK-10
SK-MEL-5 = tested on: SK-MEL-5
NCI-H23 = tested on: NCI-H23
Hs-578T = tested on: Hs-578T
Malme-3M = tested on: Malme-3M
HOP-92 = tested on: HOP-92
M14 = tested on: M14
UO-31 = tested on: UO-31
CCRF-CEM = tested on: CCRF-CEM

Structure (SMILES) | GI50 (LOX IMVI) | GI50 (OVCAR-8) | GI50 (786-0) | GI50 (EKVX) | GI50 (HT-29) | GI50 (ACHN) | GI50 (DU-145) | GI50 (RPMI-8226) | GI50 (SR) | GI50 (U-251) | GI50 (T47D) | GI50 (TK-10) | GI50 (SK-MEL-5) | GI50 (NCI-H23) | GI50 (Hs-578T) | GI50 (Malme-3M) | GI50 (HOP-92) | GI50 (M14) | GI50 (UO-31) | GI50 (CCRF-CEM)
CCC1c2[nH]c3ccccc3c2C[C@H]2C(=O)NC(CCC(=O)OC(C)(C)C)C(=O)N12 (some centres undefined) | 51.4 µM (inactive) | 48.4 µM (inactive) | 56.6 µM (inactive) | 42.6 µM (inactive) | 34 µM (inactive) | 47.4 µM (inactive) | > 100 µM (inactive) | 31.6 µM (inactive) | 41.7 µM (inactive) | 56.6 µM (inactive) | 40.6 µM (inactive) | 42.6 µM (inactive) | 39.4 µM (inactive) | 68.7 µM (inactive) | 32.7 µM (inactive) | 12.6 µM (inactive) | 30.6 µM (inactive) | 42.5 µM (inactive) | 46.9 µM (inactive) | 
COC(=O)C1=C(C(=O)OC)SC2(S1)C(C(=O)OC)=C(C(=O)OC)Sc1c2ssc1=O | 0.208 µM (active) | 1.34 µM (inactive) | 0.456 µM (active) | 2.16 µM (inactive) | 0.585 µM (active) | 0.927 µM (active) | 0.877 µM (active) | 0.982 µM (active) |  | 2.12 µM (inactive) | 1.12 µM (active) | 1.58 µM (inactive) | 1.21 µM (inactive) | 1.78 µM (inactive) | 5.18 µM (inactive) | 0.61 µM (active) | 0.826 µM (active) | 1.12 µM (inactive) | 1.63 µM (inactive) | 0.076 µM (active)
NCCNCC1CCNCC1 | > 100 µM (inactive) | > 100 µM (inactive) | > 100 µM (inactive) | > 100 µM (inactive) | > 100 µM (inactive) | > 100 µM (inactive) | > 100 µM (inactive) | > 100 µM (inactive) | > 100 µM (inactive) | > 100 µM (inactive) | > 100 µM (inactive) | > 100 µM (inactive) | > 100 µM (inactive) | > 100 µM (inactive) | > 100 µM (inactive) | > 100 µM (inactive) | > 100 µM (inactive) | > 100 µM (inactive) | > 100 µM (inactive) | 
CC(C)(NC(=O)OCc1ccccc1)C(=O)OC(=O)C(C)(C)NC(=O)OCc1ccccc1 | > 100 µM (inactive) | > 100 µM (inactive) | > 100 µM (inactive) | > 100 µM (inactive) | > 100 µM (inactive) | > 100 µM (inactive) | > 10 µM (inactive) | > 100 µM (inactive) |  | > 100 µM (inactive) | > 100 µM (inactive) |  | > 100 µM (inactive) | > 100 µM (inactive) | > 100 µM (inactive) | > 100 µM (inactive) | > 100 µM (inactive) | > 100 µM (inactive) | > 100 µM (inactive) | > 100 µM (inactive)
CCOC(=O)CSc1nc2ccccc2c(=O)n1N | > 100 µM (inactive) | 32.8 µM (inactive) | > 100 µM (inactive) | > 100 µM (inactive) | 68.4 µM (inactive) | > 100 µM (inactive) | 40.9 µM (inactive) | > 100 µM (inactive) | > 100 µM (inactive) | > 100 µM (inactive) | > 100 µM (inactive) | 83.2 µM (inactive) | > 100 µM (inactive) | > 100 µM (inactive) | > 100 µM (inactive) | > 100 µM (inactive) | > 100 µM (inactive) | > 100 µM (inactive) | > 100 µM (inactive) | 
O=C(/C=C/c1cccs1)c1ccc(Cl)s1 |  | 37.9 µM (inactive) | > 10 µM (inactive) | > 100 µM (inactive) | > 10 µM (inactive) | > 100 µM (inactive) | 56 µM (inactive) | 17.5 µM (inactive) | 25.2 µM (inactive) | 40.8 µM (inactive) | 35.1 µM (inactive) | > 100 µM (inactive) | 50.7 µM (inactive) | 23.1 µM (inactive) | 46.7 µM (inactive) | > 100 µM (inactive) |  | 38.8 µM (inactive) | 19.9 µM (inactive) | 25.1 µM (inactive)
CSC1=C(C(=O)Nc2ccc(Cl)cc2)C(N)=NC1=O | > 100 µM (inactive) | > 100 µM (inactive) | > 100 µM (inactive) | > 100 µM (inactive) | > 100 µM (inactive) |  | > 100 µM (inactive) | > 100 µM (inactive) | 37.8 µM (inactive) | > 100 µM (inactive) | > 100 µM (inactive) | > 100 µM (inactive) | > 100 µM (inactive) | > 100 µM (inactive) | > 100 µM (inactive) | > 100 µM (inactive) |  | > 100 µM (inactive) | 45.1 µM (inactive) | > 100 µM (inactive)
CCCCCCCCCC/C=C/CC(=O)SCCNC(=O)CCNC(=O)[C@@H](O)C(C)(C)COP(=O)(O)OP(=O)(O)OCC1OC(n2cnc3c(N)ncnc32)C(O)C1OP(=O)(O)O (some centres undefined) | > 10 µM (inactive) | > 10 µM (inactive) | > 10 µM (inactive) | > 10 µM (inactive) | > 10 µM (inactive) | > 10 µM (inactive) | > 10 µM (inactive) | > 10 µM (inactive) |  | > 10 µM (inactive) | > 10 µM (inactive) | > 10 µM (inactive) | > 10 µM (inactive) | > 10 µM (inactive) | > 10 µM (inactive) | > 10 µM (inactive) | > 10 µM (inactive) | > 10 µM (inactive) |  | > 10 µM (inactive)
Cc1ccc2c(c1)OC1Nc3ccccc3C1=C2O (centres undefined) | 23.8 µM (inactive) | 35 µM (inactive) | 20.1 µM (inactive) | 17.4 µM (inactive) | 30 µM (inactive) | 21.4 µM (inactive) | 25.5 µM (inactive) | 28 µM (inactive) | 31.2 µM (inactive) | 20.4 µM (inactive) | 20.3 µM (inactive) | 22.9 µM (inactive) | 16.4 µM (inactive) | 23.7 µM (inactive) | 73.8 µM (inactive) | 74.8 µM (inactive) | 38.9 µM (inactive) | 21.5 µM (inactive) | 21.2 µM (inactive) | 
O=C(COc1ccc(OCC(=O)N/N=C/c2ccc(-c3ccc(Cl)cc3Cl)o2)c(Cl)c1)N/N=C/c1ccc(-c2ccc(Cl)cc2Cl)o1 | 57.9 µM (inactive) | 55.3 µM (inactive) | 94.4 µM (inactive) | 0.142 µM (active) | > 100 µM (inactive) | 70.1 µM (inactive) | > 100 µM (inactive) | 12.6 µM (inactive) | 0.342 µM (active) | 46.7 µM (inactive) | > 100 µM (inactive) | > 100 µM (inactive) | > 100 µM (inactive) | > 100 µM (inactive) | 80.2 µM (inactive) | 82.8 µM (inactive) |  | > 100 µM (inactive) | > 100 µM (inactive) | 14.8 µM (inactive)
Cc1cc2c(cc1N)C(C)C1(CCC(=O)N2Cc2ccccc2)OCCO1 (centres undefined) | > 100 µM (inactive) | > 100 µM (inactive) | > 100 µM (inactive) | > 100 µM (inactive) | > 100 µM (inactive) | > 100 µM (inactive) | > 100 µM (inactive) | 57.4 µM (inactive) | 39.2 µM (inactive) | > 100 µM (inactive) | > 100 µM (inactive) | > 100 µM (inactive) | > 100 µM (inactive) | > 100 µM (inactive) | > 100 µM (inactive) | 89.7 µM (inactive) | > 100 µM (inactive) | > 100 µM (inactive) | > 100 µM (inactive) | 
COc1ccc(/N=N/C(=O)NC(CC(C)C)C(=O)NC(Cc2ccccc2)C(=O)O)cc1 (centres undefined) | 18.2 µM (inactive) | > 100 µM (inactive) | > 100 µM (inactive) | 40.3 µM (inactive) | > 100 µM (inactive) | 0.347 µM (active) | 0.634 µM (active) | 2.28 µM (inactive) |  | > 100 µM (inactive) | 1.06 µM (active) | > 100 µM (inactive) | 2.61 µM (inactive) | 16.3 µM (inactive) | > 100 µM (inactive) | 7.55 µM (inactive) | 16.2 µM (inactive) | 0.459 µM (active) | 3.37 µM (inactive) | 0.929 µM (active)
N#CCCN(CCC#N)c1ccc(/C=C2\N=C(c3ccccc3)N(c3ccc(Cl)cc3)C2=O)cc1 | 2.5 µM (inactive) | > 100 µM (inactive) | > 100 µM (inactive) | > 100 µM (inactive) | > 100 µM (inactive) | > 100 µM (inactive) | > 100 µM (inactive) | > 100 µM (inactive) |  | > 100 µM (inactive) | > 100 µM (inactive) | > 100 µM (inactive) | 76.7 µM (inactive) |  | 20.6 µM (inactive) | > 100 µM (inactive) | > 100 µM (inactive) | > 100 µM (inactive) | 45.4 µM (inactive) | > 100 µM (inactive)
CC[C@@H]1CSC(/C=C/C2OC3OC(C)(C)OC3C3OC(C)(C)OC23)=N1 (some centres undefined) | 6.53 µM (inactive) | 4.49 µM (inactive) | 3.98 µM (inactive) | 11.8 µM (inactive) | 3.94 µM (inactive) | 9.44 µM (inactive) | 2.27 µM (inactive) | 5.78 µM (inactive) | 3.89 µM (inactive) | 13.6 µM (inactive) | 4.25 µM (inactive) | 3.78 µM (inactive) | 6.67 µM (inactive) | 5.05 µM (inactive) | 17.9 µM (inactive) | 10.9 µM (inactive) | 3.7 µM (inactive) | 10 µM (inactive) | 10.8 µM (inactive) | 
CCOC(=O)Cc1cc(=O)[nH]c(-n2[nH]c(C)c(CCO)c2=O)n1 | > 100 µM (inactive) | > 100 µM (inactive) | > 100 µM (inactive) | > 100 µM (inactive) | > 100 µM (inactive) | > 100 µM (inactive) | > 100 µM (inactive) | > 100 µM (inactive) |  | > 100 µM (inactive) | > 100 µM (inactive) | > 100 µM (inactive) | > 100 µM (inactive) | > 100 µM (inactive) | > 100 µM (inactive) | > 100 µM (inactive) |  | > 100 µM (inactive) | > 100 µM (inactive) | > 100 µM (inactive)
